# Several values for one entry are separate records, joined by “and”; a condition that tells them apart may be missing. Equal entries are not always repeated. Where two headings read alike, the source gives them in different places.
# Key:
# Format in all cases: biochemical
# [1] = target: T1, Aβ(1-40) peptide (Homo sapiens, UniProt P05067); test: BASSR (Beta-Amyloid Self-Seeding Radioassay), inhibitors of self-seeded amyloid fibril growth; conditions: 30 μM soluble Aβ(1-40) + 125I-labeled Aβ(1-40), pH 7.5, 37° C. for 3 to 5 hours, filtration
# T1 construct: Soluble Aβ(1-40) peptide (Bachem, Torrance, Calif.); purchased Bachem, Torrance, Calif
# Description: 1. BASSR (Beta-Amyloid Self-Seeding Radioassay)
# An assay for inhibitors of self-seeded amyloid fibril growth
# (§1) Assay Buffer—50 mM sodium phosphate, pH 7.5, 100 mM NaCl, 0.02% NaN3, 1 M urea (filter and store at 4° C.)
# Soluble Aβ(1-40) peptide (Bachem, Torrance, Calif.)—2.2 mg/mL in deionized H2O (is stored in aliquots at −20° C.; is kept on ice when thawed) will self-seed after 1 week storage. Typically, the solution is stored until no lag phase is seen in the assay.
# ^125I-labeled Aβ(1-40)—150K to 350K cpm/μL in 100% acetonitrile—0.1% trifluoroacetic acid (TFA)—1% β-mercaptoethanol (aliquots stored at −20° C.). ^125I-labeled Aβ(1-40) is made in accordance with the procedure set forth by LeVine H., III, in Neurobiol. Aging, 1995;16:755, which is hereby incorporated by reference, or this reagent may be purchased from Amersham, Arlington Heights, Ill.
# Final assay conditions: 30 μM soluble Aβ(1-40) in deionized water in assay buffer+20 K to 50 K cpm ^125I-labeled Aβ(1-40) per assay. Compound to be tested is dissolved in dimethylsulfoxide (DMSO), typically 5 to 50 mM stock, such that the final concentration of DMSO is <1% v/v in the assay.
# Assay: Reaction mixture for 50 assays (on ice) is comprised of 0.1 to 0.2 μL of ^125I-labeled A^125I-labeled Aβ(1-40)+1 μL of soluble Aβ(1-40)+13.5 μL assay buffer per assay. The following are the amounts of the components of the reaction mixture sufficient for 50 assay wells.
# 1) The reaction mixture of above is prepared by mixing components and storing on ice.
# 2) 14.5 μL of the reaction mixture is pipetted into each of 50 wells on a polypropylene U-bottom 96-well microtiter plate on ice (Costar 3794).
# (§2) 3) 1.7 μL of diluted compound to be tested is added to each well in a column of eight, including solvent control. Serial 3-fold dilutions from 1 mM (100 μM final) in assay buffer−urea=7 dilutions+zero. Each 96-well plate can therefore accommodate 11 samples+1 Congo Red control (0.039-5 μM final in 2-fold steps).
# 4) The plate with aluminum film (Beckman 538619) is sealed and incubated for 10 minutes on ice.
# (§3) 5) The temperature is raised to 37° C. and incubated for 3 to 5 hours (depending on the lot of the peptide).
# 6) The aluminum film is removed and 200 μL/well of ice cold assay buffer with urea is added. The radiolabeled fibrils are collected by vacuum filtration through 0.2 μm pore size GVWP filters in 96-well plates (Millipore MAGV N22, Bedford, Mass.). The radioactivity of the filters is determined by using standard methods well-known to those skilled in the art.
# [2] = target: T2, Aβ (1-40) (Homo sapiens, UniProt P05067); test: BASST (Beta-Amyloid Self-Seeding, ThioflavinT), inhibitors of self-seeded amyloid fibril growth; conditions: 30 μM soluble Aβ(1-40), pH 7.5, 37° C. for 3 to 5 hours, thioflavin T fluorescence
# T2 construct: Soluble Aβ (1-40)—2.2 mg/mL in deionized H2O
# Description: 2. BASST (Beta-Amyloid Self-Seeding, ThioflavinT)
# An assay for inhibitors of self-seeded arnyloid fibril growth
# as §1
# Soluble Aβ (1-40)—2.2 mg/mL in deionized H2O (is stored in aliquots at −20° C.; is kept on ice when thawed) will self-seed after 1 week storage. Typically, the solution is stored until no lag phase is seen in the assay.
# Final assay conditions: 30 μM soluble Aβ(1-40) in deionized water in assay buffer. Compound to be tested is dissolved in DMSO, typically 5 to 50 mM stock, such that the final concentration of DMSO is <1% v/v in the assay.
# Assay: Reaction mixture for 50 assays (on ice) is comprised of 1 μL of soluble Aβ(1-40)+13.5 μL assay buffer per assay. The following are the amounts of the components of the reaction mixture that result in each of the 50 assay wells.
# 1) The reaction mix above is prepared by mixing the components and storing on ice.
# 2) 14.5 μL of reaction mixture is pipetted into each of 50 wells of a polystyrene U-bottom, 96-well microtiter plate (Corning 25881-96) on ice.
# as §2
# 4) The plate with aluminum film is sealed and incubated for 10 minutes on ice.
# as §3
# 6) The aluminum film is removed and 250 μL/well of 5 μM thioflavin T (ThT) [T-3516, Sigma-Aldrich] is added in 50 mM glycine-NaOH, pH 8.5. Fluorescence is read on a plate reader (ex=440 nm/20 nm; em=485 nm/20 nm) within 5 minutes.
# [3] = target: T3, Aβ (1-42) (Homo sapiens, UniProt P05067); test: Batym Assay (Aβ(1-42) aggregation, Thioflavin T fluorescence); conditions: Aβ 1-42 final concentration 100 μM, PBS pH 7.4, 37° C. for 1 day, ThT fluorescence
# T3 construct: Required Aβ (1-42) (California Peptide) is dried from its hexafluoroisopropanol (HFIP) stock solution; purchased California Peptide
# Description: Required Aβ (1-42) (California Peptide) is dried from its hexafluoroisopropanol (HFIP) stock solution. The Aβ (1-42) is dissolved in DMSO and then mixed with phosphate buffered saline (PBS) (pH 7.4). The mixed Aβ (1-42) solution is filtered with a GVWP 0.22 μm syringe filter (Millipore, Bedford, Mass.). The compound to be tested in DMSO (50 times concentrate) is put into each well (0.5 μL/well) of a 96-well plate. The Aβ(1-42) solution is added into each well (25 μL/well). The plate is centrifuged at 1000 g for 5 minutes and incubated at 37° C. for 1 day (Aβ 1-42; final concentration 100 μM).
# After incubation Thioflavin T (ThT) (30 μM) solution in glycine-NaOH buffer (pH 8.5, 50 mM) is added into each well (250 μL/well), fluorescence is measured (ex=440/20 nm, em=485/20 nm) using a fluorescence plate reader. The inhibitory activity is calculated as the reduction of fluorescence with the following formula:
# Inhibition(%)={(F(Aβ)−F(Aβ+compound)}/{F(Aβ)−F(solvent−compound)}×100.
# The IC50s are calculated by a curve-fitting program using the equation given below. The data is obtained from two different experiments in triplicate.
# x=concentration of tested compound (M),
# T3 sequence (P05067 672-713): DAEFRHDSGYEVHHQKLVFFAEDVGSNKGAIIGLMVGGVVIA
# T2 sequence (P05067 672-711): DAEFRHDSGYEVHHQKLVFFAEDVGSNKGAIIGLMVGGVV
# T1 sequence (P05067 672-711): as above
IC50 ([1]; read-out: BASSR (IC50 = μM)),IC50 ([2]; read-out: BASST (IC50 = μM)) [µM],IC50 [3],SMILES,IC50 ([1]; BASSR (IC50 = μM)) [µM],IC50 ([2]; BASST (IC50 = μM)) [µM]
> 100 µM,15,,"COc1ccc(/C=C2\N=C(c3ccccc3I)OC2=O)cc1OC [compound 10, 4-(3,4-Dimethoxy-benzylidene)-2-(2-iodo-phenyl)-4H-oxazol-5-one]",,
21 µM,,> 100 µM,"O=C1OC(c2ccccc2)=N/C1=C\c1ccc2c(c1)OCO2 [compound 2, 4-1,3-Benzodioxol-5-ylmethylene-2-phenyl-4H-oxazol-5-one]",,
> 100 µM,,,"Cc1ccc(/C=C2\N=C(c3ccccc3)OC2=O)cc1C [compound 12, 4-(3,4-Dimethyl-benzylidene)-2-phenyl-4H-oxazol-5-one]",,
16 µM,,,"COc1ccc(C2=N/C(=C\c3ccccc3)C(=O)O2)cc1 [compound 5, 4-Benzylidene-2-(4-methoxy-phenyl)-4H-oxazol-5-one]",,
> 100 µM,7,,"COc1cccc(/C=C2\N=C(c3ccccc3)OC2=O)c1 [compound 8, 4-(3-Methoxy-benzylidene)-2-phenyl-4H-oxazol-5-one]",,
> 100 µM,> 100,,"O=C1OC(c2ccccc2)=N/C1=C\c1ccc(F)c(C(F)(F)F)c1 [compound 14, 4-(4-Fluoro-3-trifluoromethyl-benzylidene)-2-phenyl-4H-oxazol-5-one]",,

# More lines, now with the values behind:
SMILES,IC50 ([1]; read-out: BASSR (IC50 = μM)),IC50 ([2]; read-out: BASST (IC50 = μM)) [µM],IC50 [3],IC50 ([1]; BASSR (IC50 = μM)) [µM],IC50 ([2]; BASST (IC50 = μM)) [µM]
"O=C1OC(c2ccc([N+](=O)[O-])cc2)=N/C1=C\c1ccc(Cl)c(Cl)c1 [compound 13, 4-(3,4-Dichloro-benzylidene)-2-(4-nitro-phenyl)-4H-oxazol-5-one]",70 µM,90,,,
"O=C1OC(c2ccccc2)=N/C1=C\c1ccccc1 [compound 1, 4-Benzylidene-2-phenyl-4H-oxazol-5-one]",> 100 µM,> 100,,,
"COc1ccc(/C=C2\N=C(c3ccccc3)OC2=O)cc1OC [compound 4, 5(4H)-Oxazolone,4-[(3,4-dimethoxyphenyl)methylene]-2-phenyl-]",7 µM and 8 µM,> 100,> 100 µM,,
"CN(C)c1ccc(/C=C2\N=C(c3ccccc3)OC2=O)c2ccccc12 [compound 6, 4-(4-Dimethylamino-naphthalen-1-ylmethylene)-2-phenyl-4H-oxazol-5-one]",> 100 µM,2.6,14.5 µM,,
"COc1cccc(/C=C2\N=C(c3ccc([N+](=O)[O-])cc3)OC2=O)c1OC [compound 9, 4-(2,3-Dimethoxy-benzylidene)-2-(4-nitro-phenyl)-4H-oxazol-5-one]",> 100 µM,12,,,
"O=C1OC(c2ccccc2)=N/C1=C\c1ccc(Cl)c(Cl)c1 [compound 11, 4-(3,4-Dichloro-benzylidene)-2-phenyl-4H-oxazol-5-one]",21 µM,30,,,
"CCCN(CCC)c1ccc(/C=C2/N=C(c3ccccc3)OC2=O)cc1 [compound 7, 4-(4-Dipropylamino-benzylidene)-2-phenyl-4H-oxazol-5-one]",> 100 µM,8,2.42 µM and 2.36 µM,,
"COc1c(/C=C2\N=C(c3ccccc3)OC2=O)cc([N+](=O)[O-])cc1[N+](=O)[O-] [compound 3, 4-(2-Methoxy-3,5-dinitro-benzylidene)-2-phenyl-4H-oxazol-5-one]",,,,> 100,7
